Measurements published in the kinase profiling compilation of Christmann-Franck et al. (2016).

What was measured:
Assay in all cases: radiometric filter-binding kinase assay
[1] = molecular target: EPHB4 (human) (UniProt P54760)
[2] = molecular target: PAK6 (human) (UniProt Q9NQU5)
[3] = molecular target: MAPK9 (human) (UniProt P45984)
[4] = molecular target: CSNK2A1 (human) (UniProt P68400)
[5] = molecular target: TBK1 (human) (UniProt Q9UHD2)
[6] = molecular target: MARK4 (human) (UniProt Q96L34)
[7] = molecular target: PKN2 (human) (UniProt Q16513)
[8] = molecular target: MAP2K2 (human) (UniProt P36507)
[9] = molecular target: GCK (human) (UniProt Q12851)
[10] = molecular target: SRPK1 (human) (UniProt Q96SB4)
[11] = molecular target: MYLK (human) (UniProt Q15746)
[12] = molecular target: CHEK1 (human) (UniProt O14757)
[13] = molecular target: DAPK1 (human) (UniProt P53355)
[14] = molecular target: MAPKAPK2 (human) (UniProt P49137)
[15] = molecular target: STK3 (human) (UniProt Q13188)
[16] = molecular target: EPHA4 (human) (UniProt P54764)
[17] = molecular target: PIM1 (human) (UniProt P11309)
[18] = molecular target: BTK (human) (UniProt Q06187)
[19] = molecular target: TTK (human) (UniProt P33981)
[20] = molecular target: NEK6 (human) (UniProt Q9HC98)
[21] = molecular target: CDK2 CCNA2 (human) (UniProt P20248+P24941)
[22] = molecular target: EEF2K (human) (UniProt O00418)
[23] = molecular target: IKBKB (human) (UniProt O14920)
[24] = molecular target: PIM2 (human) (UniProt Q9P1W9)
[25] = system: PAK2 (human), Q13177 [T402E]
[26] = molecular target: PIM3 (human) (UniProt Q86V86)
[27] = system: RPS6KB1 (human), P23443 [T412E]
[28] = molecular target: MAP3K9 (human) (UniProt P80192)
[29] = molecular target: RPS6KA5 KD1 KD2 (human) (UniProt O75582)
[30] = molecular target: MKNK2 (human) (UniProt Q9HBH9)
[31] = molecular target: MAP3K5 (human) (UniProt Q99683)
[32] = molecular target: MARK3 (human) (UniProt P27448)
[33] = molecular target: YES1 (human) (UniProt P07947)
[34] = molecular target: MAP2K1 (human) (UniProt Q02750)
[35] = molecular target: EPHB1 (human) (UniProt P54762)
[36] = molecular target: INSRR (human) (UniProt P14616)

Sequence of PIM2 (human) (Q9P1W9 whole entry, looked up): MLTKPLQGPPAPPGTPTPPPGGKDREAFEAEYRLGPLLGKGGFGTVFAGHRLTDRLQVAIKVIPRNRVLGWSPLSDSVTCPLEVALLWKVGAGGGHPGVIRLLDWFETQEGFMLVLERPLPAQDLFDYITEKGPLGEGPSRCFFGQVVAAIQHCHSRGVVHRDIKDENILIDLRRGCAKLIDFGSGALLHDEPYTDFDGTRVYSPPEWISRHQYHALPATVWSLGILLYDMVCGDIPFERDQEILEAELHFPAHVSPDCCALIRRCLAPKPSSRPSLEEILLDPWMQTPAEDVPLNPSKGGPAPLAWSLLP
Sequence of SRPK1 (human) (Q96SB4 whole entry, looked up): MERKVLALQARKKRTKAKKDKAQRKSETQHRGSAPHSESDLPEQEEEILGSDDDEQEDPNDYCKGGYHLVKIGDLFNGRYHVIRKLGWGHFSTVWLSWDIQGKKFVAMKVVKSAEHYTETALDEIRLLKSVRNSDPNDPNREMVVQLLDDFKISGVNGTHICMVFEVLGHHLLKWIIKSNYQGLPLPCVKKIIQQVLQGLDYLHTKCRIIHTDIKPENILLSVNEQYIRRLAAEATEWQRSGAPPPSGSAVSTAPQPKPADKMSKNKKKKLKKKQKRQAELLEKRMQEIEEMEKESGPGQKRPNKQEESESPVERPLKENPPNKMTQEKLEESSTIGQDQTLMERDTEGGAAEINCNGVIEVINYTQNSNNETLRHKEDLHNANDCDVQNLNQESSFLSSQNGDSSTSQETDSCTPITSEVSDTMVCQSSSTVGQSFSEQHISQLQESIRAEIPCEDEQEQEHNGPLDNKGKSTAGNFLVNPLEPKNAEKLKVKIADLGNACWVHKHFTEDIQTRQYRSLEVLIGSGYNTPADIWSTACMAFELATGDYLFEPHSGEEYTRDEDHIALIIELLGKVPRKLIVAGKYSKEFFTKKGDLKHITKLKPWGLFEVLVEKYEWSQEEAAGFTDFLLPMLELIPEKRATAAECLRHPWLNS
Sequence of MYLK (human) (Q15746 whole entry, looked up): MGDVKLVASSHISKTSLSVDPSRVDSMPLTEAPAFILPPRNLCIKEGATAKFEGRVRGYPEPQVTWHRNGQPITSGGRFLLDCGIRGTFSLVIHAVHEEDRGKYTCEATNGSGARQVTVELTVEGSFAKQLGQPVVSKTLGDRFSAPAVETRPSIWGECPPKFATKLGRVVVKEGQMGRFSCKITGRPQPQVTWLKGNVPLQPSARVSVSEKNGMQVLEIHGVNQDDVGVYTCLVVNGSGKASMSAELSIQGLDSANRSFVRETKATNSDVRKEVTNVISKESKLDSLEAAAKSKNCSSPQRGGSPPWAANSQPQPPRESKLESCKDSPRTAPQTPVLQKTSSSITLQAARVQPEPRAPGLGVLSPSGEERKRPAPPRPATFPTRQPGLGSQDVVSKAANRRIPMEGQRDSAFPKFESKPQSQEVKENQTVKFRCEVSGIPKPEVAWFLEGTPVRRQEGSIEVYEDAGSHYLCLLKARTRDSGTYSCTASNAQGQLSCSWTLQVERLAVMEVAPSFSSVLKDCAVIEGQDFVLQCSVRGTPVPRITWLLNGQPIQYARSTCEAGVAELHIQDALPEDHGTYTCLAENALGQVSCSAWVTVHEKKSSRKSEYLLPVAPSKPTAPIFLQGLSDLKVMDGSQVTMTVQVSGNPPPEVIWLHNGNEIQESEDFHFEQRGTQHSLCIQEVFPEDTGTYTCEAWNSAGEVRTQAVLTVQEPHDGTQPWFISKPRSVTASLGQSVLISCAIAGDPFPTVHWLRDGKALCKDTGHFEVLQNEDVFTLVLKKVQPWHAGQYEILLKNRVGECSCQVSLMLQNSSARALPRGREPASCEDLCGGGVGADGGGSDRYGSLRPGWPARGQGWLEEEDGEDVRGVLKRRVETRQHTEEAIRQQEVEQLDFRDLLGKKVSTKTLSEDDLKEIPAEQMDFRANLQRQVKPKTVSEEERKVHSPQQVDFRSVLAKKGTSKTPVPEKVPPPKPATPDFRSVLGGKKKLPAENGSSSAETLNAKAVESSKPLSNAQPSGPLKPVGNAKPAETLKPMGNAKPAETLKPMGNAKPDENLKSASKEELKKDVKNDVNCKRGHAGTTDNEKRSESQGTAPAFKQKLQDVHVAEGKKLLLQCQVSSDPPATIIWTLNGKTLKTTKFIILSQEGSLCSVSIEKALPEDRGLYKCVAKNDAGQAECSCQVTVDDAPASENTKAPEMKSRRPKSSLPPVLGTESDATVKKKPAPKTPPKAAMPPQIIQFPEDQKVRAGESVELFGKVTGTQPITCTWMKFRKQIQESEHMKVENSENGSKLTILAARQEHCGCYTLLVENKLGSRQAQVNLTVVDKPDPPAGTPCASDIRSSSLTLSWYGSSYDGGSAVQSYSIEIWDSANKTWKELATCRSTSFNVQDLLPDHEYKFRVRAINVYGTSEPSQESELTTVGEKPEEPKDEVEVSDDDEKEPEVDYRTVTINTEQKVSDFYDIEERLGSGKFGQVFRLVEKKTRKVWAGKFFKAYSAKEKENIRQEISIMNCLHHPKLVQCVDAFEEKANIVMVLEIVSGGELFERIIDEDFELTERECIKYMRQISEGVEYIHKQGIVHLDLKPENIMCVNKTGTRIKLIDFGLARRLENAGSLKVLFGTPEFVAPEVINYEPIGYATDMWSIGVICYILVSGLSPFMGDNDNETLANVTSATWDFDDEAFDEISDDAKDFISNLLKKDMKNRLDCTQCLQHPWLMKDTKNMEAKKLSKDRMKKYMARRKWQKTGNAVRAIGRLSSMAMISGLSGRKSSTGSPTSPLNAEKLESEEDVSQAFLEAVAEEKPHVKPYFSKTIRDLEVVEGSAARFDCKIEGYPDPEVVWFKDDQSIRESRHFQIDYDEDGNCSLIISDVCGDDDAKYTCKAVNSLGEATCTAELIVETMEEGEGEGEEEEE
Sequence of PIM1 (human) (P11309 whole entry, looked up): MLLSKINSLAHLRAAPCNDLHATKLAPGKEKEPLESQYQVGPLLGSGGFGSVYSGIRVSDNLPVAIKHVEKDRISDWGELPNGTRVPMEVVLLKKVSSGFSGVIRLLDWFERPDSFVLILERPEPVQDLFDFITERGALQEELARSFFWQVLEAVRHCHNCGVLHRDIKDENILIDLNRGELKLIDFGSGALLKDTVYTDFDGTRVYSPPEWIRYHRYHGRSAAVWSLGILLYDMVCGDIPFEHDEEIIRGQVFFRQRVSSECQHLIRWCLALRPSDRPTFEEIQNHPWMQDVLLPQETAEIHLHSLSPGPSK
Sequence of GCK (human) (Q12851 whole entry, looked up): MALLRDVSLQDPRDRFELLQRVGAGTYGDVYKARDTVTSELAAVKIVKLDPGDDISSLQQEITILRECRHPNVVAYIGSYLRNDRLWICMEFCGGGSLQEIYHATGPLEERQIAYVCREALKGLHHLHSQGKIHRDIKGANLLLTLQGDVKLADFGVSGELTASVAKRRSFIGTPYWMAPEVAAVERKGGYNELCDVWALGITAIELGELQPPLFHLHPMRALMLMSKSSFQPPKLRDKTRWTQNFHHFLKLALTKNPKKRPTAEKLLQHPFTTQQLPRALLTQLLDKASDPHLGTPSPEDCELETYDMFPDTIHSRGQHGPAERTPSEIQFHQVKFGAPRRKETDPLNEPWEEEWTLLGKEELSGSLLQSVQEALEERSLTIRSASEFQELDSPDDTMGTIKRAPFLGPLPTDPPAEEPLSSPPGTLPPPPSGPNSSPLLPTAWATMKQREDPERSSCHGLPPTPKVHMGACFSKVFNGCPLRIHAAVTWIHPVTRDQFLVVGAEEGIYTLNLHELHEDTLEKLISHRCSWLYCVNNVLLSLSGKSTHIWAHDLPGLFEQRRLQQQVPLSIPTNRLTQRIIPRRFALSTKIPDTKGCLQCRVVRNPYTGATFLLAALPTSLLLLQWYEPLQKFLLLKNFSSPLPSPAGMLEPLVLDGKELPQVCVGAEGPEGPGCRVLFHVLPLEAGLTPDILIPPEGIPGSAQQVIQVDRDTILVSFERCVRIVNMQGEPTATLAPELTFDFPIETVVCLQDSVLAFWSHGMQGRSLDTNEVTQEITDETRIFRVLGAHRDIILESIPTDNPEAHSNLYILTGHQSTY
Sequence of EEF2K (human) (O00418 whole entry, looked up): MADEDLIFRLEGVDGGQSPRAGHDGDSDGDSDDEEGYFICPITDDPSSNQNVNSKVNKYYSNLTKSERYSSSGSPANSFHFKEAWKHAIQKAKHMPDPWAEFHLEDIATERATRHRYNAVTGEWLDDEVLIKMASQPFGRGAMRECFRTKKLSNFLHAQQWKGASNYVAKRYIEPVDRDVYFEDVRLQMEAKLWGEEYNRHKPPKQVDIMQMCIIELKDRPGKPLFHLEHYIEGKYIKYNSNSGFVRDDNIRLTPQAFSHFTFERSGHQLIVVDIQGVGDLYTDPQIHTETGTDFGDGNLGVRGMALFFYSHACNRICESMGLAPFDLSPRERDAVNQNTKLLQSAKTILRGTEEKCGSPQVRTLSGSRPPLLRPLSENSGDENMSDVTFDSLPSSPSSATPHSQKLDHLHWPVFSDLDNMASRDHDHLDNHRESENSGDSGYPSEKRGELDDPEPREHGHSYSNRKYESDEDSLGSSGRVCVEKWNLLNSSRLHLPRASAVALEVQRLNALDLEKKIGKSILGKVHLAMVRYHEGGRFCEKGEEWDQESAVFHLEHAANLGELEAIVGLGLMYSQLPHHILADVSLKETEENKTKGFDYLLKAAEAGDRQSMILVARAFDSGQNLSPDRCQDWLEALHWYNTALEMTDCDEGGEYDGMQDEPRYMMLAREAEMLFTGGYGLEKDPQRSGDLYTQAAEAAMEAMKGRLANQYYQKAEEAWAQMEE

Compound: CC1=C(CO)C(=O)O[C@@H]([C@@H](C)[C@H]2CC[C@H]3[C@@H]4C[C@H]5O[C@]56[C@@H](O)C=CC(=O)[C@]6(C)C4CC[C@]23C)C1 (some centres undefined)
- residual activity ([1]; compound 0.1 µM): 120%
- residual activity ([1]; compound 1.0 µM): 119%
- residual activity ([1]; compound 10.0 µM): 105%
- residual activity ([2]; compound 0.1 µM): 125%
- residual activity ([2]; compound 1.0 µM): 126%
- residual activity ([2]; compound 10.0 µM): 105%
- residual activity ([3]; compound 0.1 µM): 112%
- residual activity ([3]; compound 1.0 µM): 114%
- residual activity ([3]; compound 10.0 µM): 119%
- residual activity ([4]; compound 0.1 µM): 79%
- residual activity ([4]; compound 1.0 µM): 94%
- residual activity ([4]; compound 10.0 µM): 94%
- residual activity ([5]; compound 1.0 µM): 107%
- residual activity ([5]; compound 10.0 µM): 93%
- residual activity ([6]; compound 0.1 µM): 87%
- residual activity ([6]; compound 1.0 µM): 97%
- residual activity ([6]; compound 10.0 µM): 77%
- residual activity ([7]; compound 0.1 µM): 103%
- residual activity ([7]; compound 1.0 µM): 95%
- residual activity ([7]; compound 10.0 µM): 104%
- residual activity ([8]; compound 0.1 µM): 108%
- residual activity ([8]; compound 10.0 µM): 120%
- residual activity ([9]; compound 0.1 µM): 98%
- residual activity ([9]; compound 1.0 µM): 106%
- residual activity ([9]; compound 10.0 µM): 68%
- residual activity ([10]; compound 0.1 µM): 89%
- residual activity ([10]; compound 1.0 µM): 86%
- residual activity ([10]; compound 10.0 µM): 63%
- residual activity ([11]; compound 0.1 µM): 113%
- residual activity ([11]; compound 1.0 µM): 114%
- residual activity ([11]; compound 10.0 µM): 114%
- residual activity ([12]; compound 0.1 µM): 109%
- residual activity ([12]; compound 1.0 µM): 114%
- residual activity ([12]; compound 10.0 µM): 117%
- residual activity ([13]; compound 0.1 µM): 108%
- residual activity ([13]; compound 1.0 µM): 95%
- residual activity ([13]; compound 10.0 µM): 108%
- residual activity ([14]; compound 1.0 µM): 56%
- residual activity ([15]; compound 0.1 µM): 123%
- residual activity ([15]; compound 1.0 µM): 126%
- residual activity ([15]; compound 10.0 µM): 129%
- residual activity ([16]; compound 0.1 µM): 107%
- residual activity ([16]; compound 1.0 µM): 98%
- residual activity ([16]; compound 10.0 µM): 109%
- residual activity ([17]; compound 0.1 µM): 109%
- residual activity ([17]; compound 1.0 µM): 103%
- residual activity ([17]; compound 10.0 µM): 94%
- residual activity ([18]; compound 0.1 µM): 118%
- residual activity ([18]; compound 1.0 µM): 115%
- residual activity ([18]; compound 10.0 µM): 110%
- residual activity ([19]; compound 0.1 µM): 111%
- residual activity ([19]; compound 1.0 µM): 112%
- residual activity ([19]; compound 10.0 µM): 94%
- residual activity ([20]; compound 1.0 µM): 102%
- residual activity ([20]; compound 10.0 µM): 111%
- residual activity ([21]; compound 0.1 µM): 108%
- residual activity ([21]; compound 1.0 µM): 113%
- residual activity ([21]; compound 10.0 µM): 117%
- residual activity ([22]; compound 0.1 µM): 104%
- residual activity ([22]; compound 1.0 µM): 100%
- residual activity ([22]; compound 10.0 µM): 97%
- residual activity ([23]; compound 0.1 µM): 103%
- residual activity ([23]; compound 1.0 µM): 103%
- residual activity ([23]; compound 10.0 µM): 72%
- residual activity ([24]; compound 0.1 µM): 96%
- residual activity ([24]; compound 1.0 µM): 102%
- residual activity ([24]; compound 10.0 µM): 97%
- residual activity ([25]; compound 0.1 µM): 100%
- residual activity ([25]; compound 1.0 µM): 96%
- residual activity ([25]; compound 10.0 µM): 86%
- residual activity ([26]; compound 0.1 µM): 95%
- residual activity ([26]; compound 1.0 µM): 110%
- residual activity ([26]; compound 10.0 µM): 83%
- residual activity ([27]; compound 0.1 µM): 99%
- residual activity ([27]; compound 1.0 µM): 97%
- residual activity ([27]; compound 10.0 µM): 69%
- residual activity ([28]; compound 0.1 µM): 91%
- residual activity ([28]; compound 1.0 µM): 100%
- residual activity ([28]; compound 10.0 µM): 86%
- residual activity ([29]; compound 0.1 µM): 104%
- residual activity ([29]; compound 1.0 µM): 101%
- residual activity ([29]; compound 10.0 µM): 99%
- residual activity ([30]; compound 0.1 µM): 99%
- residual activity ([30]; compound 10.0 µM): 126%
- residual activity ([31]; compound 0.1 µM): 104%
- residual activity ([31]; compound 1.0 µM): 100%
- residual activity ([32]; compound 0.1 µM): 99%
- residual activity ([32]; compound 1.0 µM): 114%
- residual activity ([32]; compound 10.0 µM): 118%
- residual activity ([33]; compound 0.1 µM): 99%
- residual activity ([33]; compound 1.0 µM): 112%
- residual activity ([34]; compound 0.1 µM): 100%
- residual activity ([34]; compound 10.0 µM): 111%
- residual activity ([35]; compound 0.1 µM): 105%
- residual activity ([35]; compound 1.0 µM): 101%
- residual activity ([35]; compound 10.0 µM): 107%
- residual activity ([36]; compound 0.1 µM): 99%
- residual activity ([36]; compound 1.0 µM): 97%
- residual activity ([36]; compound 10.0 µM): 77%

Compound: COc1cc(C(=O)N2CCOCC2)c(F)cc1Nc1ncc(C(F)(F)F)c(NC2CC2)n1
- residual activity ([1]; compound 1.0 µM): 94%
- residual activity ([1]; compound 10.0 µM): 94%
- residual activity ([2]; compound 1.0 µM): 94%
- residual activity ([2]; compound 10.0 µM): 94%
- residual activity ([3]; compound 1.0 µM): 108%
- residual activity ([3]; compound 10.0 µM): 84%
- residual activity ([4]; compound 1.0 µM): 96%
- residual activity ([4]; compound 10.0 µM): 74%
- residual activity ([5]; compound 10.0 µM): 26%
- residual activity ([6]; compound 1.0 µM): 95%
- residual activity ([6]; compound 10.0 µM): 52%
- residual activity ([7]; compound 1.0 µM): 84%
- residual activity ([7]; compound 10.0 µM): 82%
- residual activity ([8]; compound 1.0 µM): 118%
- residual activity ([8]; compound 10.0 µM): 98%
- residual activity ([9]; compound 1.0 µM): 73%
- residual activity ([9]; compound 10.0 µM): 25%
- residual activity ([10]; compound 1.0 µM): 84%
- residual activity ([10]; compound 10.0 µM): 69%
- residual activity ([11]; compound 1.0 µM): 44%
- residual activity ([11]; compound 10.0 µM): 8%
- residual activity ([12]; compound 1.0 µM): 58%
- residual activity ([12]; compound 10.0 µM): 25%
- residual activity ([13]; compound 1.0 µM): 53%
- residual activity ([13]; compound 10.0 µM): 11%
- residual activity ([14]; compound 1.0 µM): 102%
- residual activity ([14]; compound 10.0 µM): 97%
- residual activity ([15]; compound 1.0 µM): 111%
- residual activity ([15]; compound 10.0 µM): 92%
- residual activity ([16]; compound 1.0 µM): 86%
- residual activity ([16]; compound 10.0 µM): 98%
- residual activity ([17]; compound 1.0 µM): 101%
- residual activity ([17]; compound 10.0 µM): 94%
- residual activity ([18]; compound 1.0 µM): 115%
- residual activity ([19]; compound 1.0 µM): 56%
- residual activity ([19]; compound 10.0 µM): 31%
- residual activity ([20]; compound 1.0 µM): 112%
- residual activity ([20]; compound 10.0 µM): 90%
- residual activity ([21]; compound 1.0 µM): 94%
- residual activity ([21]; compound 10.0 µM): 72%
- residual activity ([22]; compound 1.0 µM): 103%
- residual activity ([22]; compound 10.0 µM): 107%
- residual activity ([23]; compound 1.0 µM): 97%
- residual activity ([23]; compound 10.0 µM): 89%
- residual activity ([24]; compound 1.0 µM): 100%
- residual activity ([24]; compound 10.0 µM): 107%
- residual activity ([25]; compound 1.0 µM): 89%
- residual activity ([25]; compound 10.0 µM): 88%
- residual activity ([26]; compound 1.0 µM): 101%
- residual activity ([26]; compound 10.0 µM): 78%
- residual activity ([27]; compound 1.0 µM): 89%
- residual activity ([27]; compound 10.0 µM): 68%
- residual activity ([28]; compound 1.0 µM): 39%
- residual activity ([28]; compound 10.0 µM): 7%
- residual activity ([29]; compound 1.0 µM): 85%
- residual activity ([29]; compound 10.0 µM): 65%
- residual activity ([30]; compound 1.0 µM): 58%
- residual activity ([30]; compound 10.0 µM): 22%
- residual activity ([31]; compound 1.0 µM): 66%
- residual activity ([31]; compound 10.0 µM): 13%
- residual activity ([32]; compound 1.0 µM): 91%
- residual activity ([32]; compound 10.0 µM): 61%
- residual activity ([33]; compound 1.0 µM): 89%
- residual activity ([33]; compound 10.0 µM): 110%
- residual activity ([34]; compound 1.0 µM): 95%
- residual activity ([34]; compound 10.0 µM): 81%
- residual activity ([35]; compound 1.0 µM): 93%
- residual activity ([35]; compound 10.0 µM): 91%
- residual activity ([36]; compound 1.0 µM): 84%
- residual activity ([36]; compound 10.0 µM): 67%
